Results taken from ChEMBL document CHEMBL1151025, “Synthesis and influenza neuraminidase inhibitory activity of aromatic analogues of sialic acid” (Bioorg Med Chem Lett, 1995).

Legend:
MDCK = experiment: Inhibitory activity against Influenza virus in MDCK cells; type: functional, cell-based; details: Canis lupus familiaris
[1] = Compound was tested for Inhibition of influenza A [influenza A/Shandong/09/93 (H3N2)] neuraminidase; set-up: species or system Influenza A virus

| SMILES | EC50 (MDCK) [µM] | IC50 [1] [µM] | Ki [1] [µM] |
| --- | --- | --- | --- |
| CC(=O)N[C@H]1[C@H]([C@H](O)[C@H](O)CO)OC(C(=O)O)=C[C@@H]1NC(=N)N [ZANAMIVIR] | 0.04 | 0.005 | 0.001 |
| CC(=O)Nc1c(NC(=N)N)cc(C(=O)O)cc1[C@H](O)[C@H](O)CO | – | > 100 | > 100 |
